A short description of data set [1]: Stability in human serum measured upto 6 hrs by RP-HPLC analysis. Format: ADME, cell-free.
For data set [2], the system named is Mus musculus. Description: Anti-inflammatory activity against collagenase-induced osteoarthritis C57BL/6J mouse model assessed as reduction in mankin score in articular cartilage at 1 mg/kg, ip measured on day 14. In kind it is functional, organism-based. Particulars: time 14.0 day.
Data set [3] deals with Mus musculus. Description: Anti-inflammatory activity against collagenase-induced osteoarthritis C57BL/6J mouse model assessed as improvement in cartilage thickness at 1 mg/kg, ip measured on day 14 by H and E staining based analysis. Format: functional, organism-based. Particulars: time 14.0 day.
Data set [4] deals with RAW264.7. Description: Antiinflammatory activity in LPS-induced mouse RAW264.7 cells assessed as inhibition of NO generation at 1 microg/ml preincubated with compound for 24 hrs followed by LPS addition for 6 hrs by DAF-FM diacetate probe based analysis. In kind it is functional, cell-based. The conditions noted are these: dose 1.0 µg/ml.
Data set [5] concerns RAW264.7. Description: Antiinflammatory activity in LPS-induced mouse RAW264.7 cells assessed as inhibition of TNF-alpha expression at 1 microg/ml preincubated with compound for 24 hrs followed by LPS addition for 6 hrs by ELISA method. In kind it is functional, cell-based. Particulars: dose 1.0 µg/ml, time 30.0 hrs. A general note: ELISA stands for enzyme-linked immunosorbent assay.

Data set [6] is described as follows: Cytotoxicity against mouse RAW264.7 cells assessed as cell viability at 1 microg/ml measured after 24 hrs by CCK-8 assay. Format: toxicity, cell-based. Particulars: at 1 µg/mL, read-out: Activity.
Data set [7] has as its system RAW264.7. Description: Antiinflammatory activity in LPS-induced mouse RAW264.7 cells assessed as inhibition of IL-1beta expression at 1 microg/ml preincubated with compound for 24 hrs followed by LPS addition for 6 hrs by ELISA method. In kind it is functional, cell-based. The conditions noted are these: dose 1.0 µg/ml, time 30.0 hrs.
Data set [8] concerns RAW264.7. Description: Antiinflammatory activity in LPS-induced mouse RAW264.7 cells assessed as […] in IL-1beta expression at 1 microg/ml preincubated with compound for 24 hrs followed by LPS addition for 6 hrs by ELISA method. The conditions noted are these: dose 1.0 µg/ml, time 30.0 hrs. In kind it is functional, cell-based.
For data set [9], the system named is RAW264.7. The data set is described as follows: Antiinflammatory activity in LPS-induced mouse RAW264.7 cells assessed as inhibition of NO expression at 1 microg/ml preincubated with compound for 24 hrs followed by LPS addition for 6 hrs by DAF-FM diacetate probe based analysis. Particulars: dose 1.0 µg/ml, time 30.0 hrs. In kind it is functional, cell-based.

Data set [10] deals with RAW264.7. The data set is described as follows: Antiinflammatory activity in LPS-induced mouse RAW264.7 cells assessed as reduction in IL-1beta activity at 1 microg/ml preincubated with compound for 24 hrs followed by LPS addition for 6 hrs by ELISA method. In kind it is functional, cell-based. The conditions noted are these: dose 1.0 µg/ml, time 30.0 hrs.
Data set [11] concerns RAW264.7. The data set is described as follows: Antiinflammatory activity in LPS-induced mouse RAW264.7 cells assessed as effect on TNF-alpha level at 1 microg/ml preincubated with compound for 24 hrs followed by LPS addition for 6 hrs by ELISA method. Particulars: dose 1.0 µg/ml, time 30.0 hrs. In kind it is functional, cell-based.
Data set [12] concerns RAW264.7. Description: Antiinflammatory activity in LPS-induced mouse RAW264.7 cells assessed as effect on IL-1beta level at 1 microg/ml preincubated with compound for 24 hrs followed by LPS addition for 6 hrs by ELISA method. Format: functional, cell-based. Particulars: dose 1.0 µg/ml, time 30.0 hrs.
The test system of data set [13] is RAW264.7. The data set is described as follows: Antiinflammatory activity in LPS-induced mouse RAW264.7 cells assessed as effect on NO level at 1 microg/ml preincubated with compound for 24 hrs followed by LPS addition for 6 hrs by DAF-FM diacetate probe based analysis. In kind it is functional, cell-based. The conditions noted are these: dose 1.0 µg/ml, time 30.0 hrs.

Each structure is given as a SMILES string. Activity calls are given as the source filed them. The calls are words filed in the database; no cut-off is given here. Non-standard residues stand in square brackets, D forms with d. Residues, ends and D or L forms follow the SMILES beside them. ξ: configuration not given here. *: point of attachment. Propanoyl(3-(MeO(CH2CH2O)2)) = COCCOCCOCCC(=O)*; NMeQ = CN[C@@H](CCC(N)=O)C(=O)O; X2 = COCCOCCOCCOCCOCCC(=O)*; ξM = CSCCC(N)C(=O)O

Regarding `CSCC[C@H](N)C(=O)N[C@@H](CCC(N)=O)C(=O)N[C@@H](CS)C(=O)N[C@@H](CC(N)=O)C(=O)N[C@@H](CO)C(N)=O`, the Stability entry in data set [1] was “Stable”. For the same molecule, the result with Mus musculus [2], in the data set with Mus musculus [3], in the data set with RAW264.7 [4], in the data set with RAW264.7 [5] and in the data set on RAW264.7 [7] was Active. For the same molecule, the viability at 24 h, 1 microg/ml in data set [6] was found to be 82.2%.
Turning to `COCCOCCOCCOCCOCCOCCOCCSC[C@@H](NC(=O)[C@@H](CCC(N)=O)NC(=O)[C@H](N)CCSC)C(=O)N[C@H](CC(N)=O)C(=O)N[C@H](CO)C(N)=O`, the outcome in the data set on Mus musculus [3], in the data set with RAW264.7 [4], with RAW264.7 [5] and with RAW264.7 [8] was Active. For the same molecule, the viability at 24 h, 1 microg/ml in data set [6] is 88.8%.
For `CSCC[C@@H](N)C(=O)N[C@@H](CCC(N)=O)C(=O)N[C@@H](CS)C(=O)N[C@@H](CC(N)=O)C(=O)N[C@@H](CO)C(N)=O`, the result in the data set on Mus musculus [3], in the data set on RAW264.7 [5], with RAW264.7 [7] and with RAW264.7 [9] was Active. Moreover, the viability at 24 h, 1 microg/ml in data set [6] was determined as 86.8%.
Regarding `CSCCC(N)C(=O)N(C)[C@@H](CCC(N)=O)C(=O)N[C@@H](CS)C(=O)N[C@@H](CC(N)=O)C(=O)N[C@@H](CO)C(N)=O` (some centres not stated) (H-[ξM][NMeQ]CNS-NH2), the result in the data set with Mus musculus [3], with RAW264.7 [4], in the data set with RAW264.7 [5] and in the data set on RAW264.7 [8] was Active. In data set [6], the viability at 24 h, 1 microg/ml was determined as 82.9%.
`COCCOCCOCCOCCOCCC(=O)N[C@@H](CCSC)C(=O)N[C@@H](CCC(N)=O)C(=O)N[C@@H](CS)C(=O)N[C@@H](CC(N)=O)C(=O)N[C@@H](CO)C(N)=O` (X2-MQCNS-NH2): the result in the data set on RAW264.7 [10], in the data set with RAW264.7 [11], in the data set on RAW264.7 [12] and in the data set with RAW264.7 [13] was Active. The viability at 24 h, 1 microg/ml in [6] is about 80%.
Take `COCCOCCOCCC(=O)N[C@@H](CCSC)C(=O)N[C@@H](CCC(N)=O)C(=O)N[C@@H](CS)C(=O)N[C@@H](CC(N)=O)C(=O)N[C@@H](CO)C(N)=O` ({Propanoyl(3-(MeO(CH2CH2O)2))}-MQCNS-NH2): the result in the data set with RAW264.7 [10], in the data set on RAW264.7 [11], with RAW264.7 [12] and in the data set on RAW264.7 [13] was Active. In addition, the viability at 24 h, 1 microg/ml in data set [6] is about 80%.

(Values after ChEMBL document CHEMBL6121023, “Discovery of proteolytically stable monocyte locomotion inhibitory factor peptide through systematic structural optimization” (Eur J Med Chem, 2025).)
